Data taken from patent EP3936131A1, “COMPOUNDS FOR THE TREATMENT OF ZIKA” (Dompe' Farmaceutici S.P.A., priority 2020, dated 2022).

The compounds below were run on ZIKV (HS-2015-BA-01) (assay: Plaque titration assay of supernatant from ZIKV-infected Vero CCL-81 cells treated with compound). Settings: 30, 10 and 3 microM (AEE-788 and Olcegepant: 10 and 3 microM); MOI 0.1; two treatments 24 h apart; compared to vehicle control; values only in Figures 1 to 8.
Type: cell-based, Zika Virus
Experimental: The above compounds selected by the CADD analysis were tested in a ZIKV Vero CCL-81 cells (kidney epithelial cells from African green monkey) assay. This assay is based on viral infection of Vero cells followed by visual monitoring of cytopathic effects of the virus.
In details, the above compounds were diluted to the final concentrations of 30 microM, 10 microM and 3 microM. The final volume required for treatment was 200 microliters per well, in a total of 12 wells.
For infection of the cells, ZIKV (HS-2015-BA-01), isolated from a viremic patient with symptomatic infection in Bahia State, Brazil, in 2015, was used. The complete genome of the virus is under access KX520666 in Genbank. Viral dilutions were prepared in Multiplicity of Infection (MOI) at 0.1 according to a standardized method.
In particular, 37,9 microl of virus (6x10^7 pfu/mL) was used or a total of 25.000 microl (25 ml) RPMI-0% FBS medium
100 microliters of the viral dilution (MOI 0,1) were added to each well and incubated at 5% of CO2 at T= 37°C for 1 hour for adsorption step, swift rocking every 15'.
After discarding the supernatant, 200 microliters of diluted compounds at the different concentrations described above, or vehicle were added for each compound and left in incubation at 5% of CO2 at T= 37°C for 24 hours.
After 24 hours of the first treatment the treatment was repeated a second time, with the same concentration of each compound, and at the same conditions (5% of CO2 at T= 37°C for […]).
After 24 hours, the supernatant was collected and used to perform MTT, LDH plaque titration assays, as described above.
Vero CCL-81 cells (kidney epithelial cells from African green monkey) were seeded in 24-well plates at a density of […].
Cells were maintained in RPMI 1640 medium (Cultilab) supplemented with 10% FBS (Cultilab), 2 mM L-glutamine (Gibco) and 100U/50µg penicillin/streptomycin (Sigma-Aldrich) for 24 h at 37°C in a 5% CO2 incubator.
Serial ten-fold dilutions of viral suspension in sterile dilution tubes were prepared (10-1 up to 10-4). To this aim, tubes were filled with 450 microl of medium 0% SFB and 50 microl of the sample added on the first tube. The same procedure was repeated to obtain serial dilutions by passing 50 microliters to the next dilution and successively for the other dilutions. 300 µl of each serial dilution were added into each of the two wells of 24-well plate, maintaining two wells without infection.
The inoculated plate was incubated at 37°C for 1 hour in a 5% CO2 incubator to allow virus adsorption, swift rocking every 15'. Once discard the cell supernatant from all wells, 1 ml of 1,60% semi-solid carboxymethyl cellulose (CMC) overlay medium with 2% FBS was added to each well to limit the virus dissemination.
The plate was left 4 days at 37°C in a 5% CO2 incubator. Then cell monolayer was incubated with 1 ml of the 10% formol for a minimum 18 hours at room temperature for fixation. Once removed and fixed the overlay medium, the cell monolayer was washed in running water, stained with 1 ml of the 0.04% Violet crystal for 1 hour at room temperature, and the count of viral plaques to calculate plaque-forming unit (PFU) was conducted.

Compound | virus replication (viral load expressed as log10 plaque forming equivalents)
NCCCC[C@H](NC(=O)[C@@H](Cc1cc(Br)c(O)c(Br)c1)NC(=O)N1CCC(N2Cc3ccccc3NC2=O)CC1)C(=O)N1CCN(c2ccncc2)CC1 [Olcegepant, N-[2-[5-Amino-1 (S)-[4-(4-pyridyl)piperazin-1-ylcarbonyl]pentylamino]-1(R)-(3,5-dibromo-4-hydroxybenzyl)-2-oxoethyl]-4-(2-oxo-1,2,3,4-tetrahydroquinazolin-3-yl)piperidine-1-carboxamide] | inhibition of virus replication
CCOc1nc2cccc(C(=O)OC(C)OC(=O)OC3CCCCC3)c2n1Cc1ccc(-c2ccccc2-c2nnn[nH]2)cc1 (racemic) [Candesartan cilexetil, (±)-2-Ethoxy-1-[2'-(1 H-tetrazol-5-yl)biphenyl-4-ylmethyl]-1 H-benzimidazole-7-carboxylic acid 1-(cyclohexyloxycarbonyloxy) ethyl ester] | inhibition of virus replication
Cn1c(=O)n(-c2ccc(C(C)(C)C#N)cc2)c2c3cc(-c4cnc5ccccc5c4)ccc3ncc21 [Dactolisib, 2-Methyl-2-[4-[3-methyl-2-oxo-8-(3-quinolinyl)-2,3-dihydro-1 H-imidazo[4,5-c]quinolin-1-yl]phenyl]propanenitrile] | inhibition of virus replication
CC[C@@H]([C@H](C)O)n1ncn(-c2ccc(N3CCN(c4ccc(OC[C@@H]5CO[C@@](Cn6cncn6)(c6ccc(F)cc6F)C5)cc4)CC3)cc2)c1=O [Posaconazole, 4-[4-[4-[4-[5(R)-(2,4-Difluorophenyl)-5-(1,2,4-triazol-1-ylmethyl)tetrahydrofuran-3(R)-ylmethoxy]phenyl]piperazin-1-yl]phenyl]-2-[1(S)-ethyl-2(S)-hydroxypropyl]-3,4-dihydro-2H-1,2,4-triazol-3-one] | inhibition of virus replication
Cc1cc(/C=C/C#N)cc(C)c1Nc1ccnc(Nc2ccc(C#N)cc2)n1.Cl [Rilpivirine hydrochloride, 4-[4-[4-[(E)-2-Cyanovinyl]-2,6-dimethylphenylamino]pyrimidin-2-ylamino]benzonitrile hydrochloride] | inhibition of virus replication
CCN1CCN(Cc2ccc(-c3cc4c(N[C@H](C)c5ccccc5)ncnc4[nH]3)cc2)CC1 [AEE-788, 6-[4-(4-Ethylpiperazin-1-ylmethyl)phenyl]-N-[1(R)-phenylethyl]-7H-pyrrolo[2,3-d]pyrimidin-4-amine] | inhibition of virus replication
